{
  "source": "PubChem BioAssay AID256",
  "about": "(DTP/NCI, 2004)",
  "system": "CD2F1 mice, L1210 leukemia ip, survival T/C",
  "assay": "NCI In Vivo Anticancer Drug Screen. Data for tumor model L1210 Leukemia (intraperitoneal) in CD2F1 (CDF1) mice",
  "details": "higher = longer survival",
  "method_in_brief": "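Implant tumor; dose compound or vehicle; measure endpoint in both groups; report treated divided by control.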",
  "key": {"[1]": {"details": "endpoint: mean survival time, dose: 100.0 mg/kg/injection, schedule: Q01DX009 (ip), vehicle: saline with Tween-80"}, "[2]": {"details": "endpoint: mean survival time, dose: 200.0 mg/kg/injection, schedule: Q01DX009 (ip), vehicle: saline with Tween-80"}, "[3]": {"details": "endpoint: mean survival time, dose: 400.0 mg/kg/injection, schedule: Q01DX009 (ip), vehicle: saline with Tween-80"}, "[4]": {"details": "endpoint: mean survival time, dose: 100.0 mg/kg/injection, schedule: Q04DX003 (ip), vehicle: saline with Tween-80"}, "[5]": {"details": "endpoint: mean survival time, dose: 200.0 mg/kg/injection, schedule: Q04DX003 (ip), vehicle: saline with Tween-80"}, "[6]": {"details": "endpoint: mean survival time, dose: 400.0 mg/kg/injection, schedule: Q04DX003 (ip), vehicle: saline with Tween-80"}, "[7]": {"details": "endpoint: mean survival time, dose: 25.0 mg/kg/injection, schedule: Q01DX009 (ip), vehicle: water"}},
  "note": "“And” between values parts separate entries of the source, which are not always exact repeats. Equal values may be shown once. Toxic doses and inconclusive results are not listed.",
  "data": [
    {"molecule": "COC(=O)c1ccc(Cl)nc1", "values": [
      {"measurement": "T/C", "setting": "endpoint: mean survival time, dose: 75.0 mg/kg/injection, schedule: Q04DX003 (ip), vehicle: saline with Tween-80", "value": "106 % of control"},
      {"measurement": "T/C", "setting": "[1]", "value": "98 % of control"},
      {"measurement": "T/C", "setting": "endpoint: mean survival time, dose: 150.0 mg/kg/injection, schedule: Q04DX003 (ip), vehicle: saline with Tween-80", "value": "106 % of control"},
      {"measurement": "T/C", "setting": "[2]", "value": "97 % of control"},
      {"measurement": "T/C", "setting": "endpoint: mean survival time, dose: 300.0 mg/kg/injection, schedule: Q04DX003 (ip), vehicle: saline with Tween-80", "value": "100 % of control"},
      {"measurement": "T/C", "setting": "[3]", "value": "87 % of control"}
    ]},
    {"molecule": "CNC1C(CO)OC(n2cnc3c(N)ncnc32)C1O", "note": "(configuration not stated)", "values": [
      {"measurement": "T/C", "setting": "endpoint: mean survival time, dose: 75.0 mg/kg/injection, schedule: Q01DX001 (ip), vehicle: saline", "value": "106 % of control"},
      {"measurement": "T/C", "setting": "endpoint: mean survival time, dose: 150.0 mg/kg/injection, schedule: Q01DX001 (ip), vehicle: saline", "value": "103 % of control"},
      {"measurement": "T/C", "setting": "endpoint: mean survival time, dose: 300.0 mg/kg/injection, schedule: Q01DX001 (ip), vehicle: saline", "value": "109 % of control"}
    ]},
    {"molecule": "C[Si](C)(c1ccccc1C(=O)Nc1ccccc1)c1ccccc1C(=O)Nc1ccccc1", "values": [
      {"measurement": "T/C", "setting": "[4]", "value": "92 % of control"},
      {"measurement": "T/C", "setting": "[5]", "value": "96 % of control"},
      {"measurement": "T/C", "setting": "[6]", "value": "101 % of control"}
    ]},
    {"molecule": "O=C(CNC(=O)Nc1cccc(Cl)c1)N/N=C/c1ccccc1Cl", "values": [
      {"measurement": "T/C", "setting": "[1]", "value": "106 % of control"},
      {"measurement": "T/C", "setting": "[2]", "value": "109 % of control"},
      {"measurement": "T/C", "setting": "[3]", "value": "112 % of control"}
    ]},
    {"molecule": "CC(C)(C)OOC(=O)Nc1ccc(Cl)cc1", "values": [
      {"measurement": "T/C", "setting": "endpoint: mean survival time, dose: 25.0 mg/kg/injection, schedule: Q01DX001 (ip), vehicle: saline with Tween-80", "value": "88 % of control"},
      {"measurement": "T/C", "setting": "endpoint: mean survival time, dose: 50.0 mg/kg/injection, schedule: Q01DX001 (ip), vehicle: saline with Tween-80", "value": "92 % of control"},
      {"measurement": "T/C", "setting": "endpoint: mean survival time, dose: 100.0 mg/kg/injection, schedule: Q01DX001 (ip), vehicle: saline with Tween-80", "value": "88 % of control"}
    ]},
    {"molecule": "O=C(Nc1ccc(Nc2ccc(NC(=O)c3ccccc3)c3c2C(=O)c2ccccc2C3=O)c2c1C(=O)c1ccccc1C2=O)c1ccccc1", "values": [
      {"measurement": "T/C", "setting": "[1]", "value": "95 % of control"},
      {"measurement": "T/C", "setting": "[4]", "value": "108 % of control"},
      {"measurement": "T/C", "setting": "[2]", "value": "95 % of control"},
      {"measurement": "T/C", "setting": "[5]", "value": "100 % of control"},
      {"measurement": "T/C", "setting": "[3]", "value": "100 % of control"},
      {"measurement": "T/C", "setting": "[6]", "value": "102 % of control"}
    ]},
    {"molecule": "O=C1OC(=O)c2ccccc21", "values": [
      {"measurement": "T/C", "setting": "endpoint: mean survival time, dose: 25.0 mg/kg/injection, schedule: Q01DX009 (ip), vehicle: Klucel (hydroxypropylcellulose) (HPC)", "value": "91 % of control"},
      {"measurement": "T/C", "setting": "endpoint: mean survival time, dose: 50.0 mg/kg/injection, schedule: Q01DX009 (ip), vehicle: Klucel (hydroxypropylcellulose) (HPC)", "value": "95 % of control"},
      {"measurement": "T/C", "setting": "endpoint: mean survival time, dose: 100.0 mg/kg/injection, schedule: Q01DX009 (ip), vehicle: Klucel (hydroxypropylcellulose) (HPC)", "value": "95 % of control"}
    ]},
    {"molecule": "O=C(O)/C=C/SCCC(=O)O", "values": [
      {"measurement": "T/C", "setting": "[4]", "value": "93 % of control and 101 % of control"},
      {"measurement": "T/C", "setting": "[5]", "value": "101 % of control and 94 % of control"}
    ]},
    {"molecule": "CN(Cc1ccccc1)Cc1ccccc1", "values": [
      {"measurement": "T/C", "setting": "endpoint: mean survival time, dose: 100.0 mg/kg/injection, schedule: Q04DX002 (ip), vehicle: saline", "value": "100 % of control"},
      {"measurement": "T/C", "setting": "endpoint: mean survival time, dose: 200.0 mg/kg/injection, schedule: Q04DX002 (ip), vehicle: saline", "value": "94 % of control"}
    ]},
    {"molecule": "O=P(NCCCO)(OCc1ccccc1)N(CCCl)CCCl", "note": "(configuration not stated)", "values": [
      {"measurement": "T/C", "setting": "endpoint: mean survival time, dose: 15.63 mg/kg/injection, schedule: Q01DX001 (ip), vehicle: DMSO", "value": "101 % of control"},
      {"measurement": "T/C", "setting": "endpoint: mean survival time, dose: 31.25 mg/kg/injection, schedule: Q01DX001 (ip), vehicle: DMSO", "value": "98 % of control"},
      {"measurement": "T/C", "setting": "endpoint: mean survival time, dose: 62.5 mg/kg/injection, schedule: Q01DX001 (ip), vehicle: DMSO", "value": "101 % of control"},
      {"measurement": "T/C", "setting": "endpoint: mean survival time, dose: 125.0 mg/kg/injection, schedule: Q01DX001 (ip), vehicle: DMSO", "value": "104 % of control"},
      {"measurement": "T/C", "setting": "endpoint: mean survival time, dose: 250.0 mg/kg/injection, schedule: Q01DX001 (ip), vehicle: DMSO", "value": "116 % of control"},
      {"measurement": "T/C", "setting": "endpoint: mean survival time, dose: 1000.0 mg/kg/injection, schedule: Q01DX001 (ip), vehicle: DMSO", "value": "173 % of control"},
      {"measurement": "T/C", "setting": "endpoint: mean survival time, dose: 1000.0 mg/kg/injection, schedule: Q01DX001 (ip), vehicle: other", "value": "178 % of control"}
    ]},
    {"molecule": "O=C(O)c1nnc(C(=O)O)nn1", "values": [
      {"measurement": "T/C", "setting": "endpoint: mean survival time, dose: 12.5 mg/kg/injection, schedule: Q01DX009 (ip), vehicle: water", "value": "100 % of control"},
      {"measurement": "T/C", "setting": "[7]", "value": "100 % of control"},
      {"measurement": "T/C", "setting": "endpoint: mean survival time, dose: 50.0 mg/kg/injection, schedule: Q01DX009 (ip), vehicle: water", "value": "95 % of control"},
      {"measurement": "T/C", "setting": "endpoint: mean survival time, dose: 100.0 mg/kg/injection, schedule: Q01DX009 (ip), vehicle: water", "value": "94 % of control"}
    ]},
    {"molecule": "O=C(O)C1(C(=O)O)CCC1.[NH2-].[NH2-].[Pt+2]", "values": [
      {"measurement": "T/C", "setting": "endpoint: mean survival time, dose: 3.12 mg/kg/injection, schedule: Q01DX009 (ip), vehicle: dextrose", "value": "110 % of control"},
      {"measurement": "T/C", "setting": "endpoint: mean survival time, dose: 6.25 mg/kg/injection, schedule: Q01DX009 (ip), vehicle: dextrose", "value": "118 % of control"},
      {"measurement": "T/C", "setting": "endpoint: mean survival time, dose: 6.25 mg/kg/injection, schedule: Q01DX009 (ip), vehicle: other", "value": "107 % of control"},
      {"measurement": "T/C", "setting": "endpoint: mean survival time, dose: 12.5 mg/kg/injection, schedule: Q01DX009 (ip), vehicle: dextrose", "value": "110 % of control"},
      {"measurement": "T/C", "setting": "endpoint: mean survival time, dose: 12.5 mg/kg/injection, schedule: Q01DX009 (ip), vehicle: saline with Tween-80", "value": "108 % of control"},
      {"measurement": "T/C", "setting": "endpoint: mean survival time, dose: 12.5 mg/kg/injection, schedule: Q04DX003 (ip), vehicle: water", "value": "109 % of control"},
      {"measurement": "T/C", "setting": "endpoint: mean survival time, dose: 25.0 mg/kg/injection, schedule: Q01DX009 (ip), vehicle: saline with Tween-80", "value": "117 % of control"},
      {"measurement": "T/C", "setting": "[7]", "value": "152 % of control"},
      {"measurement": "T/C", "setting": "endpoint: mean survival time, dose: 25.0 mg/kg/injection, schedule: Q04DX003 (ip), vehicle: water", "value": "112 % of control"},
      {"measurement": "T/C", "setting": "endpoint: mean survival time, dose: 50.0 mg/kg/injection, schedule: Q01DX009 (ip), vehicle: dextrose", "value": "113 % of control"},
      {"measurement": "T/C", "setting": "endpoint: mean survival time, dose: 100.0 mg/kg/injection, schedule: Q01DX009 (ip), vehicle: other", "value": "90 % of control"},
      {"measurement": "T/C", "setting": "[1]", "value": "96 % of control"},
      {"measurement": "T/C", "setting": "endpoint: mean survival time, dose: 100.0 mg/kg/injection, schedule: Q04DX003 (ip), vehicle: water", "value": "105 % of control"},
      {"measurement": "T/C", "setting": "endpoint: median survival time, dose: 60.0 mg/kg/injection, schedule: Q01DX009 (ip), vehicle: clinical formulation", "value": "109 % of control"},
      {"measurement": "T/C", "setting": "endpoint: median survival time, dose: 90.0 mg/kg/injection, schedule: Q01DX009 (ip), vehicle: dextrose", "value": "124 % of control"}
    ]}
  ]
}
